Measured values reported in patent publication US5773522A, “Polymer-bound camptothecin derivatives” (priority 1993, dated 1998).

How the values were obtained:
[1] = test system: HT29/Colon Carcinoma; assay: Antitumor activity in athymic mice transplanted s.c. with HT29 Colon Carcinoma; assay type: in vivo, athymic Swiss/nu/ mice; settings: for % tumor inhib. / TOX (number of toxic deaths/total number of mice) / cured mice (tumor free mice 90 days after tumor implant): 7.5 mg/kg (CPT equivalent), iv q4dx6
Experimental: (§1) Camptothecin (CPT) was dissolved in sterile water with 10% tween.
(§2) Treatment was administered i.v. in a volume of 10 ml/kg of body weight and control mice were treated with sterile water.
HT29 Colon Carcinoma was transplanted s.c. in athymic Swiss/nu/ mice using 15-20 mg of tumor brei.
(§3) All animals were from Charles River Calco, Como, Italy.
(§4) Ten mice/group for conventional and eight for athymic mice were used.
(§5) The mouse colony was routinely tested for the absence of antibodies to a panel of pathogens including Mouse Hepatitis, Sendai Virus and Mycoplasma Pulmonis.
(§6) Tumor growth was assesed by caliper measurement and the tumor weight estimated according to Geran et al. (see: Cancer Chem.Rep., Part 3, 3 (2) ed. 3, pp 1-103, 1972). The antitumor activity is expressed as percentage of inhibition of tumor growth (%T/I) using the following formula: [formula] The median increase in survival time (T/C%) was calculated using the following formula: [formula]
Cured mice are mice without tumor at the end of the experiment.
(§7) Toxicity was evaluated on the basis of the body weight reduction and gross autopsy findings, mainly in terms of reduction of spleen and liver size.

[2] = test system: advanced M5076 murine reticulosarcoma; assay: Antitumor activity against advanced M5076 murine reticulosarcoma; assay type: in vivo, C57Bl/6 mice; settings: iv on day 16,20,24,28,31,35; for % tumor inhibition: estimated at day 34
Experimental: as §1, §2
(§8) M5076 muine reticulosarcoma was maintained by serial i.m. passages and transplanted s.c. (5×10^5 cells/mouse) in compatible C57Bl/6 mice.
as §3, §4
(§9) The conventional mice weighed 20 to 22 g and were kept under standard laboratory conditions.
as §5, §6, §7

[3] = Stability of polymeric conjugates in murine or human plasma (camptothecin release); assay type: in vitro ADME
Experimental: Each sample was extracted by adding 100 μl of 0.25M phosphoric acid, 500 μl CH3 CN and 700 μl ethyl acetate and vigorously shaking for 20 minutes at 4° C. After that time, the sample was spun at 15000×g for 10 minutes and the supernatant was separated. To the residue was added 300 μl of CH3 CN and 500 μl was spun at 15000×g for 10 minutes. The supernatant was separated. The organic phases were pooled and evaporated using a high vacuum centrifuge. The sample was recovered by adding 500 μl of MeOH/water pH2 (70/30 by volume) and injected into HPLC apparatus for determining the total drug percentage content.

[4] = test system: early M5076 murine reticulosarcoma; assay: Antitumor activity against early M5076 murine reticulosarcoma; assay type: in vivo, C57Bl/6 mice; settings: 7.5 mg/kg (CPT equivalent); for % tumor inhib.: estimated one week after the last treatment
Experimental: Camptothecin (CPT) was dissolved in sterile water with 10% tween. […]
as §8, §3, §4, §9, §5, §6, §7

[5] = Water solubility; assay type: physicochemical; settings: dissolved in saline
[6] = background statement; cited from earlier work
[7] = test system: healthy C57Bl/F mice; assay: Toxicity (LD10, LD50) in healthy mice; assay type: in vivo; settings: i.v., healthy C57B1/F mice
[8] = Toxicity (LD10, LD50) in healthy mice; assay type: in vivo, C57Bl/F mice; settings: mouse, in vivo, iv, healthy C57B1/F mice; read-out: LD50 (dose inducing 50% of death mice)

Copolymer of N-(2-hydroxypropyl)methacrylamide, 20-O-[N-methacryloylglycyl -L-phenylalanyl-L-leucylglycyl] camptothecin and N-(2-hydroxypropyl) methacryloylglycinamide [Compound A2]
% tumor inhib. [1]: 96%
TOX (number of toxic deaths/total number of mice) [1]: 0/18
cured mice (tumor free mice 90 days after tumor implant) [1]: 3/18
antitumor activity compared with camptothecin (in words) ([1]; all experiments (HT29, early and advanced M5076)): striking higher activity
T/C % (median increase in survival time) ([2]; 10.0 mg/kg (CPT equivalent)): 174%
TOX (number of toxic deaths/total number of mice) ([2]; 10.0 mg/kg (CPT equivalent)): 0/10
% tumor inhibition ([2]; 10.0 mg/kg (CPT equivalent)): 80%
T/C % (median increase in survival time) ([2]; 15.0 mg/kg (CPT equivalent)): 183%
TOX (number of toxic deaths/total number of mice) ([2]; 15.0 mg/kg (CPT equivalent)): 0/10
% tumor inhibition ([2]; 15.0 mg/kg (CPT equivalent)): 95%
camptothecin released after plasma incubation ([3]; after 60 hours): 100%
T/C % (median increase in survival time) ([4]; iv 1,6,9): 171%
TOX (number of toxic deaths/total number of mice) ([4]; iv 1,6,9): 0/10
% tumor inhib. ([4]; iv 1,6,9): 100%
water solubility (in words) [5]: highly water soluble

CC[C@@]1(O)C(=O)OCc2c1cc1n(c2=O)Cc2cc3ccccc3nc2-1 [CPT, camptothecin]
solubility in vehicles suitable for parenteral administration (in words) [6]: practically insoluble
% tumor inhib. [1]: 83%
TOX (number of toxic deaths/total number of mice) [1]: 0/10
cured mice (tumor free mice 90 days after tumor implant) [1]: 0/10
T/C % (median increase in survival time) ([2]; 7.5 mg/kg (CPT equivalent)): 173%
TOX (number of toxic deaths/total number of mice) ([2]; 7.5 mg/kg (CPT equivalent)): 0/10
% tumor inhibition ([2]; 7.5 mg/kg (CPT equivalent)): 72%
LD10 (dose inducing 10% of death mice) [7]: 16.9 mg/kg
LD50 [8]: 43.4 mg/kg
T/C % (median increase in survival time) ([4]; ip 1,6,9): 165%
TOX (number of toxic deaths/total number of mice) ([4]; ip 1,6,9): 0/10
% tumor inhib. ([4]; ip 1,6,9): 100%

Copolymer of N-(^2 -hydroxypropyl)methacrylamide) 9-amino-20-O-[N-methacryloylglycyl-L-phenylalanyl-L-leucylglycyl] campto-thecin and N-(2-hydroxypropyl)methacryloylalycinamide [Compound A3]
camptothecin released after plasma incubation ([3]; after 50 hours): 100%

Copolymer of N-(2-hydroxypropyl)methacrylamide, 20-O-[N-methacryloylglycyl-(6-aminohexanoylyl]camptothecin and N-(2-hydroxy -propyl)methacryloylglycinamide [Al]
camptothecin released after plasma incubation ([3]; after 120 hours): 10%
